# From ChEMBL document CHEMBL4002623, “Synthesis and in vitro activity of dicationic indolyl diphenyl ethers as novel potent antibiotic agents against drug-resistant bacteria” (Bioorg Med Chem Lett, 2017)
# Tests used:
# Proteus mirabilis = assay: Antibacterial activity against Proteus mirabilis 09-1 by agar dilution method; type: functional
# [1] = system: Staphylococcus epidermidis; assay: Potency index, ratio of levofloxacin MIC to test compound MIC for methicillin-resistant Staphylococcus epidermidis 09-3; type: functional
# Klebsiella pneumoniae [2] = assay: Antibacterial activity against extended-spectrum beta-lactamase-positive Klebsiella pneumoniae ATCC 700603 by agar dilution method; type: functional
# Staphylococcus aureus [3] = assay: Antibacterial activity against methicillin-sensitive Staphylococcus aureus 09-6 by agar dilution method; type: functional
# Pseudomonas aeruginosa [4] = assay: Antibacterial activity against Pseudomonas aeruginosa PAO1 by agar dilution method; type: functional
# [5] = system: Staphylococcus epidermidis; assay: Antibacterial activity against methicillin-resistant Staphylococcus epidermidis 09-3 by agar dilution method; type: functional
# Enterococcus faecium [6] = assay: Potency index, ratio of levofloxacin MIC to test compound MIC for vancomycin-resistant Enterococcus faecium ATCC 700221; type: functional
# Enterococcus faecalis [7] = assay: Antibacterial activity against vancomycin-resistant Enterococcus faecalis 09-9 by agar dilution method; type: functional
# Staphylococcus aureus [8] = assay: Potency index, ratio of levofloxacin MIC to test compound MIC for methicillin-resistant Staphylococcus aureus 09-13; type: functional
# Staphylococcus aureus [9] = assay: Antibacterial activity against methicillin-resistant Staphylococcus aureus 09-13 by agar dilution method; type: functional
# Escherichia coli [10] = assay: Antibacterial activity against extended-spectrum beta-lactamase-positive Escherichia coli 09-1 by agar dilution method; type: functional
# Escherichia coli [11] = assay: Antibacterial activity against extended-spectrum beta-lactamase-negative Escherichia coli 1515 by agar dilution method; type: functional
# Klebsiella pneumoniae [12] = assay: Antibacterial activity against Klebsiella pneumoniae ATCC BAA-2146 expressing NDM-1 by agar dilution method; type: functional
# Escherichia coli [13] = assay: Antibacterial activity against extended-spectrum beta-lactamase-negative Escherichia coli 09-20 by agar dilution method; type: functional
# Staphylococcus aureus [14] = assay: Antibacterial activity against methicillin-sensitive Staphylococcus aureus 15 by agar dilution method; type: functional
# Pseudomonas aeruginosa [15] = assay: Antibacterial activity against Pseudomonas aeruginosa 09-14 by agar dilution method; type: functional
# Pseudomonas aeruginosa [16] = assay: Antibacterial activity against Pseudomonas aeruginosa ATCC 27853 by agar dilution method; type: functional
# Enterococcus faecalis [17] = assay: Antibacterial activity against vancomycin-resistant Enterococcus faecalis ATCC 51299 by agar dilution method; type: functional
# Enterococcus faecium [18] = assay: Antibacterial activity against vancomycin-sensitive Enterococcus faecium 09-10 by agar dilution method; type: functional
# Enterococcus faecium [19] = assay: Antibacterial activity against vancomycin-resistant Enterococcus faecium 05-8 by agar dilution method; type: functional
# Serratia marcescens = assay: Antibacterial activity against Serratia marcescens 41002 by agar dilution method; type: functional
# Klebsiella aerogenes = assay: Antibacterial activity against Enterobacter aerogenes 45102 by agar dilution method; type: functional
# [20] = system: Staphylococcus epidermidis; assay: Antibacterial activity against methicillin-sensitive Staphylococcus epidermidis 09-9 by agar dilution method; type: functional
# Escherichia coli [21] = assay: Antibacterial activity against extended-spectrum beta-lactamase-negative Escherichia coli ATCC 25922 by agar dilution method; type: functional
# Providencia rettgeri = assay: Antibacterial activity against Providencia rettgeri ATCC 31052 by agar dilution method; type: functional
# Klebsiella pneumoniae [22] = assay: Antibacterial activity against extended-spectrum beta-lactamase-negative Klebsiella pneumoniae 7 by agar dilution method; type: functional
# Staphylococcus aureus [23] = assay: Antibacterial activity against methicillin-sensitive Staphylococcus aureus ATCC 29213 by agar dilution method; type: functional
# Proteus vulgaris = assay: Antibacterial activity against Proteus vulgaris ATCC 29905 by agar dilution method; type: functional
# Salmonella typhi = assay: Antibacterial activity against Salmonella typhi H901 by agar dilution method; type: functional, Salmonella enterica subsp. enterica serovar Typhi; settings: Salmonella enterica
# Enterobacter cloacae = assay: Antibacterial activity against Enterobacter cloacae 45301 by agar dilution method; type: functional
# [24] = system: Staphylococcus epidermidis; assay: Antibacterial activity against methicillin-sensitive Staphylococcus epidermidis ATCC 12228 by agar dilution method; type: functional
# [25] = Cytotoxicity against HEK293T cells after 48 hrs by MTS assay; type: cell-based, HEK-293T; settings: human
# Morganella morganii = assay: Antibacterial activity against Morganella morganii ATCC 25830 by agar dilution method; type: functional
# Staphylococcus aureus [26] = assay: Antibacterial activity against methicillin-resistant Staphylococcus aureus ATCC 33591 by agar dilution method; type: functional
# Enterococcus faecalis [27] = assay: Antibacterial activity against vancomycin-sensitive Enterococcus faecalis 09-8 by agar dilution method; type: functional
# Enterococcus faecalis [28] = assay: Antibacterial activity against vancomycin-sensitive Enterococcus faecalis ATCC 29212 by agar dilution method; type: functional
# Enterococcus faecium [29] = assay: Antibacterial activity against vancomycin-resistant Enterococcus faecium ATCC 700221 by agar dilution method; type: functional
# Enterococcus faecalis [30] = assay: Potency index, ratio of levofloxacin MIC to test compound MIC for vancomycin-resistant Enterococcus faecalis 09-9; type: functional
# Klebsiella pneumoniae [31] = assay: Antibacterial activity against extended-spectrum beta-lactamase-positive Klebsiella pneumoniae 09-25 by agar dilution method; type: functional
# Klebsiella pneumoniae [32] = assay: Antibacterial activity against extended-spectrum beta-lactamase-negative Klebsiella pneumoniae 09-8 by agar dilution method; type: functional
# Citrobacter freundii = assay: Antibacterial activity against Citrobacter freundii ATCC 43864 by agar dilution method; type: functional
# [33] = system: Acinetobacter calcoaceticus; assay: Antibacterial activity against Acinetobacter calcoaceticus ATCC 19606 by agar dilution method; type: functional
compound,measurement,setting,value
N=C(c1ccc2cc(-c3ccc(Oc4ccc(-c5cc6ccc(C(=N)N7CCC7)cc6[nH]5)cc4)cc3)[nH]c2c1)N1CCC1,MIC,Proteus mirabilis,128 µg/mL
same,Ratio,[1],4 - 8
same,MIC,Klebsiella pneumoniae [2],64 µg/mL
same,MIC,Staphylococcus aureus [3],2 µg/mL
same,MIC,Pseudomonas aeruginosa [4],> 128 µg/mL
same,MIC,[5],0.5 µg/mL
same,Ratio,Enterococcus faecium [6],16 - 64
same,MIC,Enterococcus faecalis [7],8 µg/mL
same,Ratio,Staphylococcus aureus [8],4 - 8
same,MIC,Staphylococcus aureus [9],0.5 µg/mL
same,MIC,Escherichia coli [10],64 µg/mL
same,MIC,Escherichia coli [11],64 µg/mL
same,MIC,Klebsiella pneumoniae [12],64 to 128 µg/mL
same,MIC,Escherichia coli [13],64 µg/mL
same,MIC,Staphylococcus aureus [14],0.5 µg/mL
same,MIC,Pseudomonas aeruginosa [15],> 128 µg/mL
same,MIC,Pseudomonas aeruginosa [16],128 µg/mL
same,MIC,Enterococcus faecalis [17],2 µg/mL
same,MIC,Enterococcus faecium [18],8 µg/mL
same,MIC,Enterococcus faecium [19],2 µg/mL
same,MIC,Serratia marcescens,128 µg/mL
same,MIC,Klebsiella aerogenes,64 µg/mL
same,MIC,[20],0.5 µg/mL
same,MIC,Escherichia coli [21],16 µg/mL
same,MIC,Providencia rettgeri,> 128 µg/mL
same,MIC,Klebsiella pneumoniae [22],64 µg/mL
same,MIC,Staphylococcus aureus [23],2 µg/mL
same,MIC,Proteus vulgaris,128 µg/mL
same,MIC,Salmonella typhi,32 µg/mL
same,MIC,Enterobacter cloacae,> 128 µg/mL
same,MIC,[24],0.125 µg/mL
same,CC50 at 48 h,[25],21.6 µg/mL
same,MIC,Morganella morganii,8 µg/mL
same,MIC,Staphylococcus aureus [26],0.5 µg/mL
same,MIC,Enterococcus faecalis [27],2 µg/mL
same,MIC,Enterococcus faecalis [28],2 µg/mL
same,MIC,Enterococcus faecium [29],2 µg/mL
same,Ratio,Enterococcus faecalis [30],16 - 64
same,MIC,Klebsiella pneumoniae [31],64 to 128 µg/mL
same,MIC,Klebsiella pneumoniae [32],64 µg/mL
same,MIC,Citrobacter freundii,64 µg/mL
same,MIC,[33],> 128 µg/mL
